In PubChem BioAssay AID720623 (The Scripps Research Institute Molecular Screening Center, 2013):
Activity calls are given as the source filed them. How the calls were made is not given here.

System: methionyl-tRNA synthetase (Trypanosoma brucei brucei)
Assay: inhibition of trypanosomal MetRS charging activity – biochemical, radioactivity, assay provider, counter-screen for T. brucei MetRS inhibitor project, late-stage follow-up (AID 720623)
Conditions: Recombinant T. brucei MetRS enzyme, [3H]methionine tRNA aminoacylation, filter scintillation, 120 min, stronger effect = higher value

| inhibition (at 10 µM) | inhibition (inhibition, at 1 µM) [%] | SMILES |
| --- | --- | --- |
| 61.8% | 7.32 | O=C(NCc1nc2ccccc2[nH]1)C1=C[C@H](c2ccccc2)C[C@H](OCc2ccc(CO)cc2)O1 |
| 84.7% | 32.2 | O=C(CC=NOCc1ccc([N+](=O)[O-])cc1)Nc1ccc(Br)cc1 |
| 44.8% (inactive) | -2.58 | Clc1ccc(OCCSCc2nc3ccccc3[nH]2)cc1 |
| 97.3% | 84.2 | O=C1CC(N(CCc2ccccc2)C(=S)Nc2ccccc2)C(=O)N1c1ccc(Br)cc1 (stereo not drawn) |
| 97.5% | 63.2 | O=C1[C@@H]2Cc3c([nH]c4ccccc34)C(c3cccc([N+](=O)[O-])c3)N2C(=O)CN1CCCO (stereo partly drawn) |
| 86.6% | 19.4 | Cc1[nH]c2ccc(Br)cc2c(=O)c1CN1CCCCCC1 |
| 97% | 75.3 | Clc1ccc(-c2nnc(SCc3nc4ccccc4[nH]3)o2)c(Cl)c1 |
| 94.3% | 44.6 | O=C(NCc1nc2ccccc2[nH]1)C1=C[C@@H](c2ccccc2)C[C@@H](OCc2ccc(CO)cc2)O1 |
| 72.7% | 28.4 | CCOC(=O)N1CCC(Nc2c(Nc3ccc(F)cc3)c(=O)c2=O)CC1 |
| 92.7% | 44.6 | CC(=O)c1c[nH]c(C(=O)NCc2cccc(C(F)(F)F)c2)c1 |
| 90.5% | 36.5 | CC(CC(=O)Nc1cccc(Br)c1)=NNC(=O)c1ccc(O)cc1O |
| 79.4% | 5.68 | O=C(NCc1nc2ccccc2[nH]1)C1=C[C@H](c2ccc3c(c2)OCO3)C[C@H](OCCCCO)O1 |
| 93.6% | 52.8 | O=C(NCc1nc2ccccc2[nH]1)C1=C[C@@H](C2CC2)C[C@@H](OCc2ccc(CO)cc2)O1 |
| 99.9% | 84.2 | O=C(NCc1nc2ccccc2[nH]1)C1=C[C@@H](c2ccc(Br)cc2)C[C@@H](OCCCCO)O1 |
| 52.6% | 19.7 | O=C1CC(SCc2nc3ccccc3[nH]2)C(=O)N1c1cccc(Cl)c1 (stereo not drawn) |
| 67.3% | -1.05 | Cc1ccc(NC(=O)CN(C)C(=O)CCSc2ccc(F)cc2)cc1 |
| 97.8% | 71.1 | O=C(NCc1nc2ccccc2[nH]1)C1=C[C@H](c2csc3ccccc23)C[C@H](OCCCCO)O1 |
| 90.3% | 44.9 | O=C(Nc1ccc(F)c(Cl)c1)C1CC(=O)n2c(nc3ccccc32)N1 (stereo not drawn) |
| 93.2% | 64.7 | CCCCCCCCCC1NC(C(=O)O)Cc2c1[nH]c1ccccc21 (stereo not drawn) |
| 95.1% | 57 | COc1ccccc1NS(=O)(=O)c1cccc(NC(=O)Nc2ccccc2)c1 |
| 99.6% | 89.8 | O=C(NCCc1nc2ccccc2[nH]1)c1ccc(Cl)c([N+](=O)[O-])c1 |
| 80.4% | 1.98 | C[C@H](O)[C@@H]1C(=O)N2CCc3c([nH]c4ccccc34)[C@@H]2C[C@@H]1N(C)Cc1ccc2c(c1)OCO2 |
| 56.9% | -3.3 | O=C(NCc1nc2ccccc2[nH]1)C1=C[C@H](C2CC2)C[C@H](OCc2ccc(CO)cc2)O1 |
| 93.1% | 50 | CC(C)OCCCN1CC(=O)N2C(c3cccc([N+](=O)[O-])c3)c3[nH]c4ccccc4c3C[C@H]2C1=O (stereo partly drawn) |
| 71.7% | 14.4 | O=C(N/C(=C\c1cccnc1)c1nc2ccccc2[nH]1)c1cccc(Br)c1 |
| 96.7% | 57.7 | CN1CC(=O)N2C(c3cccc([N+](=O)[O-])c3)c3[nH]c4ccccc4c3C[C@H]2C1=O (stereo partly drawn) |

Second part, the compound before the results:

| SMILES | inhibition (at 10 µM) | inhibition (inhibition, at 1 µM) [%] |
| --- | --- | --- |
| Brc1cnc2nc(SCc3nc4ccccc4[nH]3)[nH]c2c1 | 84.9% | 23.7 |
| O=C(CC=NOCc1ccc([N+](=O)[O-])cc1)Nc1ccc(Cl)cc1 | 86.5% | 28.6 |
| COc1cccc(NC(=O)CSc2nnc3c(n2)[nH]c2ccc(C)cc23)c1 | 94.2% | 97.7 |
| O=C(CC(=O)Nc1cccc(Cl)c1)NN=Cc1ccccc1 | 81.1% | 28.2 |
| O=C(Cn1cc(C(=O)C(=O)N2CCOCC2)c2ccccc21)Nc1cccc(C(F)(F)F)c1 | 100% | 87.5 |
| O=C(C[C@H]1C(=O)N(Cc2ccccc2)C[C@@H]1c1ccc(Br)cc1)Nc1ccc(Br)cc1 | 94.4% | 55.7 |
| CC(C)(C)[C@H]1C=C(C(=O)NCc2nc3ccccc3[nH]2)O[C@@H](OCc2ccc(CO)cc2)C1 | 83.8% | 21.6 |
| O=C(NNC(=O)c1ccc(-n2cncn2)c([N+](=O)[O-])c1)c1ccc(Cl)cc1 | 73% | 7.36 |
| COc1ccc2[nH]c3nc(SCC(=O)Nc4ccc5c(c4)OCO5)nnc3c2c1 | 65.6% | 63.4 |
| COc1ccccc1-n1c(SCC(=O)Nc2ccc(Cl)cc2)nc(O)c(Cc2ccccc2)c1=O | 67% | 2.04 |
| CCO[C@@H]1OC(C(=O)NCc2nc3ccccc3[nH]2)=C[C@H](c2ccc(Br)cc2)[C@H]1CCCO | 64% | 6.72 |
| O=C(Cn1cnc2ccccc21)Nc1cccc([N+](=O)[O-])c1 | 91.9% | 44.9 |
| CCO[C@H]1OC(C(=O)NCc2nc3ccccc3[nH]2)=C[C@@H](c2ccc(Br)cc2)[C@@H]1CCCO | 81.6% | 0.88 |
| O=C(NCc1nc2ccccc2[nH]1)C1=C[C@H](c2ccc(Br)cc2)C[C@H](OCCCCO)O1 | 94.3% | 51.6 |
| CN(Cc1cc(Cl)cc(Cl)c1)[C@H]1C[C@H]2c3[nH]c4ccccc4c3CCN2C(=O)[C@H]1CO | 101% | 95.1 |
| Oc1c(Cl)cc(Cl)cc1CNc1nc2ccccc2[nH]1 | 98.7% | 88.3 |
| CN(CC(=O)Nc1ccc(Cl)cc1)C(=O)c1ccc(-n2cncn2)c([N+](=O)[O-])c1 | 92.5% | 38 |
| O=C(CN1CCSC1=NCc1ccccc1)c1ccc(Cl)c(Cl)c1 | 28% (inactive) | -1.95 |
| O=C(NCc1nc2ccccc2[nH]1)C1=C[C@H](c2ccc(Br)cc2)C[C@H](OCc2ccc(CO)cc2)O1 | 94.6% | 50.3 |
| O=C(NNC(=O)c1cc(-c2ccc(Cl)c(Cl)c2)nc2ccccc12)Nc1ccccc1 | 85.5% | 59.7 |
| O=C(CCC(=O)Nc1cccc([N+](=O)[O-])c1)NN=Cc1cccs1 | 74.3% | 6.25 |
| O=C(NCc1nc2ccccc2[nH]1)C1=C[C@@H](c2csc3ccccc23)C[C@@H](OCCCCO)O1 | 89.2% | 20.6 |
| COc1ccc(CNC(=O)CSc2nnc3c(n2)[nH]c2ccc(F)cc23)cc1 | 89.6% | 47.5 |
| O=C(NCc1nc2ccccc2[nH]1)C1=C[C@@H](c2ccc(Br)cc2)C[C@@H](OCc2ccc(CO)cc2)O1 | 97.6% | 62.1 |
| COc1ccc(OCC(O)CNC(=O)Nc2ccc(Cl)cc2)cc1 (stereo not drawn) | 61.9% | 28.9 |
| CC(=O)c1ccc(N2CCN(C(=O)CCCn3c(=O)[nH]c4ccc(Br)cc4c3=O)CC2)cc1 | 97% | 68.1 |
| CC(C)(C)[C@@H]1C=C(C(=O)NCc2nc3ccccc3[nH]2)O[C@H](OCc2ccc(CO)cc2)C1 | 84.8% | 30.8 |
| O=C(NCc1nc2ccccc2[nH]1)C1=C[C@@H](c2ccc3c(c2)OCO3)C[C@@H](OCCCCO)O1 | 93.7% | 50.4 |
